Reference: ChEMBL document CHEMBL1201862, “PubChem BioAssay data set” (2004)
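Results reflect a 48-hour exposure of cells in 96-well plates to compound at five concentrations. GI50 is the concentration that inhibits growth by half.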 Active and inactive are the calls of the source. Rule as the data show it: active = GI50 up to about 1.1 µM and inactive = higher.

What was measured:
Test in all cases: DTP human tumour cell line panel, 48 h
HOP-92 = system: HOP-92
HL-60 = system: HL-60
A549 = system: A549
OVCAR-8 = system: OVCAR-8
RXF 631 = system: RXF 631
SK-MEL-2 = system: SK-MEL-2
SF-539 = system: SF-539
HT-29 = system: HT-29
OVCAR-4 = system: OVCAR-4
SNB-75 = system: SNB-75
SK-OV-3 = system: SK-OV-3
CCRF-CEM = system: CCRF-CEM
K562 = system: K562
DLD-1 = system: DLD-1
M14 = system: M14
RXF 393 = system: RXF 393
786-0 = system: 786-0
NCI-H226 = system: NCI-H226
U-251 = system: U-251
DMS-273 = system: DMS-273
M19-MEL = system: M19-MEL
MOLT-4 = system: MOLT-4
NCI-H522 = system: NCI-H522
NCI-H23 = system: NCI-H23
SF-295 = system: SF-295
HCT-116 = system: HCT-116
SNB-19 = system: SNB-19
RPMI-8226 = system: RPMI-8226
UACC-62 = system: UACC-62
SF-268 = system: SF-268
IGROV-1 = system: IGROV-1
HCC 2998 = system: HCC 2998
SW-620 = system: SW-620
SN12C = system: SN12C
UO-31 = system: UO-31
LXFL 529 = system: LXFL 529
UACC-257 = system: UACC-257
HCT-15 = system: HCT-15
NCI-H460 = system: NCI-H460
SR = system: SR
SNB-78 = system: SNB-78
Malme-3M = system: Malme-3M
ACHN = system: ACHN
XF498 = system: XF498
KM12 = system: KM12
DMS-114 = system: DMS-114
LOX IMVI = system: LOX IMVI
HOP-62 = system: HOP-62
EKVX = system: EKVX
CAKI-1 = system: CAKI-1
COLO 205 = system: COLO 205
KM-20L2 = system: KM-20L2
OVCAR-5 = system: OVCAR-5
OVCAR-3 = system: OVCAR-3

Cc1cccc(C)c1CO
GI50 (HOP-92): > 100 µM (inactive) | GI50 (HL-60): > 100 µM (inactive) | GI50 (A549): > 100 µM (inactive) | GI50 (OVCAR-8): > 100 µM (inactive) | GI50 (RXF 631): > 100 µM (inactive) | GI50 (SK-MEL-2): > 100 µM (inactive) | GI50 (SF-539): > 100 µM (inactive) | GI50 (HT-29): > 100 µM (inactive) | GI50 (OVCAR-4): > 100 µM (inactive) | GI50 (SNB-75): > 100 µM (inactive) | GI50 (SK-OV-3): > 100 µM (inactive) | GI50 (CCRF-CEM): > 100 µM (inactive) | GI50 (K562): > 100 µM (inactive) | GI50 (DLD-1): > 100 µM (inactive) | GI50 (M14): > 100 µM (inactive) | GI50 (RXF 393): > 100 µM (inactive) | GI50 (786-0): > 100 µM (inactive) | GI50 (NCI-H226): > 100 µM (inactive) | GI50 (U-251): > 100 µM (inactive) | GI50 (DMS-273): > 100 µM (inactive) | GI50 (M19-MEL): > 100 µM (inactive) | GI50 (MOLT-4): > 100 µM (inactive) | GI50 (NCI-H522): > 100 µM (inactive) | GI50 (NCI-H23): > 100 µM (inactive) | GI50 (SF-295): > 100 µM (inactive) | GI50 (HCT-116): > 100 µM (inactive) | GI50 (SNB-19): > 100 µM (inactive) | GI50 (RPMI-8226): > 100 µM (inactive) | GI50 (UACC-62): > 100 µM (inactive) | GI50 (SF-268): > 100 µM (inactive) | GI50 (IGROV-1): > 100 µM (inactive) | GI50 (HCC 2998): > 100 µM (inactive) | GI50 (SW-620): > 100 µM (inactive) | GI50 (SN12C): > 100 µM (inactive) | GI50 (UO-31): > 100 µM (inactive) | GI50 (LXFL 529): > 100 µM (inactive) | GI50 (UACC-257): > 100 µM (inactive) | GI50 (HCT-15): > 100 µM | GI50 (NCI-H460): > 100 µM (inactive) | GI50 (SR): > 100 µM (inactive) | GI50 (SNB-78): > 100 µM (inactive) | GI50 (Malme-3M): > 100 µM (inactive) | GI50 (ACHN): > 100 µM (inactive) | GI50 (XF498): > 100 µM (inactive) | GI50 (KM12): > 100 µM (inactive) | GI50 (DMS-114): > 100 µM (inactive) | GI50 (LOX IMVI): > 100 µM (inactive) | GI50 (HOP-62): > 100 µM (inactive) | GI50 (EKVX): > 100 µM (inactive) | GI50 (CAKI-1): > 100 µM (inactive) | GI50 (COLO 205): > 100 µM (inactive) | GI50 (KM-20L2): > 100 µM (inactive) | GI50 (OVCAR-5): > 100 µM (inactive) | GI50 (OVCAR-3): > 100 µM (inactive)
